Columns and labels:
human TLR9 = molecular target: T1, human TLR9 (Homo sapiens, UniProt Q9NR96); experiment: Inhibition of CpG ODN 2006-mediated NF-κB-luciferase activation in hTLR9-LUC-293 cells; settings: for Percent 2006 Activity: equimolar 0.156 μM CpG ODN 2006 and inhibitory ODN; for inhibition of hTLR9 (CpG ODN 2006-mediated luciferase activity), in words: 0.156 μM CpG ODN 2006, increasing ODN, 16 h; for inhibitory for TLR9: general statement 'found according to the present invention', conditions not given
T1 sequence (Q9NR96 26-1032): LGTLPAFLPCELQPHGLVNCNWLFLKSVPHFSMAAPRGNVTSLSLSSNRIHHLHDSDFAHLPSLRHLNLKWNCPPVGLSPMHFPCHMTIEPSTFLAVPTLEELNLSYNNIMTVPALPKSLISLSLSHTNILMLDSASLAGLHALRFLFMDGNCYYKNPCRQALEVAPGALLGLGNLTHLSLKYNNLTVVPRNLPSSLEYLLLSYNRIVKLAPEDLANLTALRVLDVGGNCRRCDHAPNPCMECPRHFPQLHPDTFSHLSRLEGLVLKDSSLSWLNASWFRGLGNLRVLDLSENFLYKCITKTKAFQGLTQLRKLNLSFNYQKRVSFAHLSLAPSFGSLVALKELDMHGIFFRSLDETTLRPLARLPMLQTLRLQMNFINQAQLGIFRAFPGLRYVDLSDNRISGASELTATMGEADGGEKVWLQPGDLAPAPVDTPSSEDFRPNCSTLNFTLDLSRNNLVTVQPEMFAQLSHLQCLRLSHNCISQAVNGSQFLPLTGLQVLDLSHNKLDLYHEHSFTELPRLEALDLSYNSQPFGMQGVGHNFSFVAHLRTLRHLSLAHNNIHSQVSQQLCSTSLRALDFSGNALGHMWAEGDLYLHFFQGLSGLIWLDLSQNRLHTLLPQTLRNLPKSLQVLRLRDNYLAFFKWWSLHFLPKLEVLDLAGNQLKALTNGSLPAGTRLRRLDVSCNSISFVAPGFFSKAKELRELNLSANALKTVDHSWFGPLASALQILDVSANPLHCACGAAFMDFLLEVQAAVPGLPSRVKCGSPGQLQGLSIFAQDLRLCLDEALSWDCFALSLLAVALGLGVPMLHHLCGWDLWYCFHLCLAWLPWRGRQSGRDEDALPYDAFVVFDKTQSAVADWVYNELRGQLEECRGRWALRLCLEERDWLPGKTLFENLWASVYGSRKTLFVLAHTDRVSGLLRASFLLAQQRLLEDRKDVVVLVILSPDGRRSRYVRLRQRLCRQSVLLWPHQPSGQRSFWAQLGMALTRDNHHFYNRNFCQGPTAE

human TLR8 = molecular target: T2, human TLR8 (Homo sapiens, UniProt Q9NR97); experiment: Inhibition of R-848-mediated NF-κB-luciferase activation in hTLR8-LUC-293 cells; format: cell-based; settings: for inhibitory for TLR8: general statement 'found according to the present invention', conditions not given
T2 construct: expressed in transfected cells
T2 sequence (Q9NR97 27-1041): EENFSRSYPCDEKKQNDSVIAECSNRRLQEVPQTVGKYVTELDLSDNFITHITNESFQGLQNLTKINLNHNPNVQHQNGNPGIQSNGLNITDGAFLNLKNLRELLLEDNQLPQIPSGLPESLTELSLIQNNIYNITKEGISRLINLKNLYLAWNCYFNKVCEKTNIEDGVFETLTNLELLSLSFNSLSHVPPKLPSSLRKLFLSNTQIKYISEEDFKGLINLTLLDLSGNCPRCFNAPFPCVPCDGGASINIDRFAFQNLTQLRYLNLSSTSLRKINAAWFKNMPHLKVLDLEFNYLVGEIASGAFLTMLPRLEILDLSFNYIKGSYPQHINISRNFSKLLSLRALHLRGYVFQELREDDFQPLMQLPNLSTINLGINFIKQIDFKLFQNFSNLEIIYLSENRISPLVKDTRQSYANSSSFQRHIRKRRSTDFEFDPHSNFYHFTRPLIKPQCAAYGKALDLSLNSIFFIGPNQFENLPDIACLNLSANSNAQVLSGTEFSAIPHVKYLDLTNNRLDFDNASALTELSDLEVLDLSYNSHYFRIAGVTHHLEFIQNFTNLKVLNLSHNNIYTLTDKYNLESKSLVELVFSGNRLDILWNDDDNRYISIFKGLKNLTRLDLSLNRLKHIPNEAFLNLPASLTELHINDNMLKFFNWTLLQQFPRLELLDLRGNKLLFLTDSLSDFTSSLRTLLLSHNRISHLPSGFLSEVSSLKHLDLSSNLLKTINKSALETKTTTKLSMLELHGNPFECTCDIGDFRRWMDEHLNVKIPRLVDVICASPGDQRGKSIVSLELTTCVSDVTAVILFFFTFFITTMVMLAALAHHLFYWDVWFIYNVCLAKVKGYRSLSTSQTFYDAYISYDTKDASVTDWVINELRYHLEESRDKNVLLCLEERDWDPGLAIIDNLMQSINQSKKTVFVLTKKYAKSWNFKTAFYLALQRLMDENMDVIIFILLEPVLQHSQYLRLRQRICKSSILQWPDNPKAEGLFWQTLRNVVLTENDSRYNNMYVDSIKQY
Description: The previous examples describe the ability of certain inhibitory ODN to inhibit activation of signal transduction mediated by human Toll-like receptor 9 (hTLR9). […] The assay system involved stimulating hTLR8-LUC-293 cells with the TLR8 ligand, R-848 (Resiquimod; Jurk M et al. (2002) Nat Immunol 3:499) in the presence and absence of ODN and comparing the induction of luciferase activity in the absence of ODN to luciferase activity in the presence of ODN.
Cells were assayed for luciferase activity 16 h later. Results were calculated as fold induction above medium background.
Luciferase activity was assayed after 16 h.
hTLR8-LUC-293 cells were incubated with 50 μM R-848 in the presence of increasing concentrations of the following ODN: ODN 2088, D13GT (whererin D is dSpacer), GTN13, N6GTN7, random 15-mer N15, N13GT, and the dinucleotide GT. Luciferase activity was assayed after 16 h. Luciferase activity of R-848 without any ODN was set to 100% (without correction for medium background, i.e. background activity of medium remained at approx. 17%).
Luciferase activity was assayed after 16 h. Luciferase activity of R-848 without any ODN was set to 100% (without correction for medium background, i.e., background activity of medium remained at approx. 17%).
In yet a further set of experiments hTLR8-LUC-293 cells were incubated with 50 μM R-848 in the presence of increasing amounts of different dinucleotides (GT, ODN 603; TG, ODN 688; GG, ODN 689; GU, ODN 690; UG, ODN 691; AT, ODN 692; and TT, ODN 693). Luciferase was assayed after 16 h. Luciferase activity of R-848 without any ODN was set to 100% and remaining R-848-mediated NF-κB activation in the presence of dinucleotides or ODN 2088 was calculated. Medium background was 17% in this set of experiments.
hTLR-LUC-293 cells (expressing the respective humanTLR7, TLR8, or TLR9) were incubated with constant amounts of TLR-agonist (for hTLR7: 2 μM R-848, for hTLR8: 50 μM R-848, and for hTLR9: 0.156 μM CpG ODN 2006) and increasing amounts of TLR-antagonist. […] To compare data for different TLRs, percent remaining activity of agonist was plotted against the log of molar ratio of antagonist to agonist (e.g., for hTLR8: 50 μM R-848 and 5 μM ODN, the plotted ratio is 10^−1). Used ODN concentrations were: for hTLR7 and hTLR8, 5 μM, 0.5 μM, 0.05 μM, and 0.005 μM, and for hTLR9, 2.5 μM, 0.156 μM, 0.0098 μM and 0.00061 μM.

[1] = Table 2 (5′ CC replaced by other dinucleotides)
[2] = Table 3 (nucleotides flanking 5′ CC, truncations)
[3] = Table 1 (length b / Spacer 18 variants)

TTGTGGCGGGGAAGT (DNA, backbone and methylation of C not given here) [ODN 438]
Percent 2006 Activity (human TLR9; [1]): 95%

NNNNNNNNNNNNNN [ODN 605, reference compound]
inhibition of hTLR9 (CpG ODN 2006-mediated luciferase activity), in words (human TLR9): not

TATTGGCGGGGAAGT (DNA, backbone and methylation of C not given here) [ODN 442]
Percent 2006 Activity (human TLR9; [1]): 101%

TAGTGGCGGGGAAGT (DNA, backbone and methylation of C not given here) [ODN 441]
Percent 2006 Activity (human TLR9; [1]): 105%

TGATGGCGGGGAAGT (listed as DNA, chemistry not given here) [ODN 444]
Percent 2006 Activity (human TLR9; [1]): 96% | inhibitory for TLR8 (human TLR8): inhibitory

TCCGGGCGGGGAAGT (DNA, backbone and methylation of C not given here) [ODN 156]
Percent 2006 Activity (human TLR9; [2]): 10% | inhibitory for TLR9 (human TLR9): inhibitory | inhibitory for TLR8 (human TLR8): inhibitory

TCCTGTGTGTGTGTGTCGGGGAAGT (listed as DNA, chemistry not given here) [ODN 495]
Percent 2006 Activity (human TLR9; [3]): 34%

TCGTGGCGGGGAAGT (DNA, backbone and methylation of C not given here) [ODN 435]
Percent 2006 Activity (human TLR9; [1]): 77%

ACCTGGCGGGGAAGT (DNA, backbone and methylation of C not given here) [ODN 941]
Percent 2006 Activity (human TLR9; [2]): 11% | inhibitory for TLR9 (human TLR9): inhibitory | inhibitory for TLR8 (human TLR8): inhibitory

TCCTAGCGGGGAAGT (DNA, backbone and methylation of C not given here) [SEQ ID NO:10]
inhibitory for TLR9 (human TLR9): inhibitory | inhibitory for TLR8 (human TLR8): inhibitory

TCCAGGCGGGGAAGT (DNA, backbone and methylation of C not given here) [ODN 157]
Percent 2006 Activity (human TLR9; [2]): 14%

TCCTGTGTGTGTGTGTGTCGGGGAAGT (DNA, backbone and methylation of C not given here) [ODN 497, b = 13]
Percent 2006 Activity (human TLR9; [3]): 28% | inhibitory for TLR9 (human TLR9): inhibitory | inhibitory for TLR8 (human TLR8): inhibitory

TCCTAGCGGGGGCGTCCTAT (chemistry not given here) [SEQ ID NO:12]
inhibitory for TLR9 (human TLR9): inhibitory | inhibitory for TLR8 (human TLR8): not for TLR8

CTGGCGGGGAAGT (DNA, backbone and methylation of C not given here) [ODN 962]
Percent 2006 Activity (human TLR9; [2]): 122% | inhibition of hTLR8 (R-848 activity), in words (human TLR8; 50 μM R-848, increasing ODN (up to 5 μM), 16 h): specific inhibition

TCCTGLLGGGGAAGT (two Spacer 18 hexaethyleneglycol spacers, as printed in the source, key not given here) [ODN 492]
Percent 2006 Activity (human TLR9; [3]): 67%

TTCTGGCGGGGAAGT (DNA, backbone and methylation of C not given here) [ODN 440]
Percent 2006 Activity (human TLR9; [1]): 90%

TCTTGGCGGGGAAGT (DNA, backbone and methylation of C not given here) [ODN 437]
Percent 2006 Activity (human TLR9; [1]): 89%

TCCTGTGTGTGTGTCGGGGAAGT (listed as DNA, chemistry not given here) [ODN 494]
Percent 2006 Activity (human TLR9; [3]): 47%

CCTCAAGCTTGAGGGG [SEQ ID NO:13]
inhibitory for TLR9 (human TLR9): inhibitory | inhibitory for TLR8 (human TLR8): not for TLR8

TACTGGCGGGGAAGT (DNA, backbone and methylation of C not given here) [ODN 074]
Percent 2006 Activity (human TLR9; [1]): 132%

TCATGGCGGGGAAGT (DNA, backbone and methylation of C not given here) [ODN 073]
Percent 2006 Activity (human TLR9; [1]): 114%

TGCTGGCGGGGAAGT (listed as DNA, chemistry not given here) [ODN 443]
Percent 2006 Activity (human TLR9; [1]): 91% | inhibitory for TLR8 (human TLR8): inhibitory

TAATGGCGGGGAAGT (DNA, backbone and methylation of C not given here) [ODN 959]
Percent 2006 Activity (human TLR9; [1]): 92%

TTATGGCGGGGAAGT (DNA, backbone and methylation of C not given here) [ODN 439]
Percent 2006 Activity (human TLR9; [1]): 91%

TGGTGGCGGGGAAGT (DNA, backbone and methylation of C not given here) [ODN 436]
Percent 2006 Activity (human TLR9; [1]): 90%

TTTTGGCGGGGAAGT (DNA, backbone and methylation of C not given here) [ODN 072]
Percent 2006 Activity (human TLR9; [1]): 121%

TCCTGGCGGGGAA (DNA, backbone and methylation of C not given here) [ODN 969]
inhibition of hTLR9 (CpG ODN 2006-mediated luciferase activity), in words (human TLR9): inhibited

TCCTGLGGGGAAGT (Spacer 18 hexaethyleneglycol spacer, as printed in the source, key not given here) [ODN 493]
Percent 2006 Activity (human TLR9; [3]): 54%
